Reference: patent US10945432B2, “Active compound combinations comprising a (thio)carboxamide derivative and a fungicidal compound” (BAYER CROPSCIENCE AKTIENGESELLSCHAFT, priority 2013, dated 2021)

How the values were obtained:
Assay type in all cases: in vivo
Pyrenophora teres = assay: Pyrenophora teres-test (barley)/preventive; conditions: Table C1, 8 days after inoculation
Protocol: (§1) • Solvent: 49 parts by weight of N,N-dimethylacetamide • Emulsifier: 1 part by weight of alkylaryl polyglycol ether
(§2) To produce a suitable preparation of active compound, 1 part by weight of active compound or active compound combination is mixed with the stated amounts of solvent and emulsifier, and the concentrate is diluted with water to the desired concentration.
(§3) To test for preventive activity, young plants are sprayed with the preparation of active compound or active compound combination at the stated rate of application. After the spray coating has been dried, the plants are sprayed with a spore suspension of Pyrenophora teres. The plants remain for 48 hours in an incubation cabinet at approximately 20° C. and a relative atmospheric humidity of approximately 100%. The plants are placed in the greenhouse at a temperature of approximately 20° C. and a relative atmospheric humidity of approximately 80%.
The test is evaluated 8 days after the inoculation. 0% means an efficacy which corresponds to that of the untreated control, while an efficacy of 100% means that no disease is observed.

Venturia inaequalis = assay: Venturia test (apples)/preventive; conditions: 10 days after inoculation
Protocol: (§4) • Solvent: 24.5 parts by weight of acetone • 24.5 parts by weight of dimethylacetamide • Emulsifier: 1 part by weight of alkylaryl polyglycol ether
(§5) To produce a suitable preparation of active compound, 1 part by weight of active compound is mixed with the stated amounts of solvent and emulsifier, and the concentrate is diluted with water to the desired concentration.
To test for preventive activity, young plants are sprayed with the preparation of active compound at the stated rate of application. After the spray coating has dried on, the plants are inoculated with an aqueous conidia suspension of the causal agent of apple scab (Venturia inaequalis) and then remain for 1 day in an incubation cabinet at approximately 20° C. and a relative atmospheric humidity of 100%. The plants are then placed in a greenhouse at approximately 21° C. and a relative atmospheric humidity of approximately 90%.
The test is evaluated 10 days after the inoculation. 0% means an efficacy which corresponds to that of the untreated control, while an efficacy of 100% means that no disease is observed.

Botrytis cinerea = assay: Botrytis test (beans)/preventive; conditions: Table B1, 2 days after inoculation
Protocol: as §4, §5
To test for preventive activity, young plants are sprayed with the preparation of active compound. After the spray coating has dried on, 2 small pieces of agar covered with growth of Botrytis cinerea are placed on each leaf. The inoculated plants are placed in a darkened chamber at 20° C. and a relative atmospheric humidity of 100%.
2 days after the inoculation, the size of the lesions on the leaves is evaluated. 0% means an efficacy which corresponds to that of the untreated control, while an efficacy of 100% means that no disease is observed.

Septoria tritici = assay: Septoria tritici-test (wheat)/preventive; conditions: 21 days after inoculation
Protocol: as §1, §2
as §3, with “suspension of Septoria tritici. The plants” for “suspension of Pyrenophora teres. The plants”, “of approximately 100% and afterwards for 60 hours at approximately 15° C. in a translucent incubation cabinet at a relative atmospheric humidity of approximately 100%. The” for “of approximately 100%. The”, “of approximately 15° C. and” for “of approximately 20° C. and”
The test is evaluated 21 days after the inoculation. 0% means an efficacy which corresponds to that of the untreated control, while an efficacy of 100% means that no disease is observed.

Sphaerotheca fuliginea = assay: Sphaerotheca test (cucumbers)/preventive; conditions: Table E1, 7 days after inoculation
Protocol: as §4, §5
(§6) To test for preventive activity, young plants are sprayed with the preparation of active compound at the stated rate of application. After the spray coating has dried on, the plants are inoculated with an aqueous spore suspension of Sphaerotheca fuliginea. The plants are then placed in a greenhouse at approximately 23° C. and a relative atmospheric humidity of approximately 70%.
The test is evaluated 7 days after the inoculation. 0% means an efficacy which corresponds to that of the untreated control, while an efficacy of 100% means that no disease is observed.

Alternaria solani = assay: Alternaria test (tomatoes)/preventive; conditions: 3 days after inoculation
Protocol: as §4, §5
as §6, with “Alternaria solani.” for “Sphaerotheca fuliginea.”, “an incubation cabinet” for “a greenhouse”, “20°” for “23°”, “100%.” for “approximately 70%.”
The test is evaluated 3 days after the inoculation. 0% means an efficacy which corresponds to that of the untreated control while an efficacy of 100% means that no disease is observed.

## CC1(C)N=C(c2cnc3ccccc3c2)c2ccccc2C1(F)F [b27, 3-(4,4-difluoro-3,3-dimethyl-3,4-dihydroisoquinolin-1-yl)quinoline]
Pyrenophora teres; 60 ppm a.i.
  Efficacy in % found: 38%
Pyrenophora teres; 240 ppm a.i.
  Efficacy in % found: 75%
Venturia inaequalis; Table F1, 0.5 ppm a.i.
  Efficacy in % found: 23%
Botrytis cinerea; 1 ppm a.i.
  Efficacy in % found: 60%

## CON(C(=O)c1cn(C)nc1C(F)F)C(C)Cc1c(Cl)cc(Cl)cc1Cl (centres unmarked) [b29, 3-(difluoromethyl)-N-methoxy-1-methyl-N-[1-(2,4,6-trichlorophenyl)propan-2-yl]-1H-pyrazole-4-carboxamide]
Septoria tritici; Table D1, 5 ppm a.i.
  Efficacy in % found: 94%
Sphaerotheca fuliginea; 0.25 ppm a.i.
  Efficacy in % found: 30%
Sphaerotheca fuliginea; 1 ppm a.i.
  Efficacy in % found: 30%

## Cc1nn(C)c(Nc2c(F)cc(Cl)cc2F)c1-c1ccc(F)cc1Cl [b39, N-(4-chloro-2,6-difluorophenyl)-4-(2-chloro-4-fluorophenyl)-1,3-dimethyl-1H-pyrazol-5-amine]
Septoria tritici; Table D1, 60 ppm a.i.
  Efficacy in % found: 50%
Septoria tritici; Table D1, 240 ppm a.i.
  Efficacy in % found: 88%
Alternaria solani; Table A1, 1 ppm a.i.
  Efficacy in % found: 17%

## CC(O)(Cn1cncn1)c1ccc(Oc2ccc(Cl)cc2)cc1C(F)(F)F (centres unmarked) [b40, 2-[4-(4-chlorophenoxy)-2-(trifluoromethyl)phenyl]-1-(1H-1,2,4-triazol-1-yl)propan-2-ol]
Sphaerotheca fuliginea; 2.5 ppm a.i.
  Efficacy in % found: 37%
Sphaerotheca fuliginea; 10 ppm a.i.
  Efficacy in % found: 85%
Alternaria solani; Table A1, 2.5 ppm a.i.
  Efficacy in % found: 66%

## CCC(O)(Cn1cncn1)c1ccc(Oc2ccc(Cl)cc2)cc1C(F)(F)F (centres unmarked) [b41, 2-[4-(4-chlorophenoxy)-2-(trifluoromethyl)phenyl]-1-(1H-1,2,4-triazol-1-yl)butan-2-ol]
Pyrenophora teres; 15 ppm a.i.
  Efficacy in % found: 25%
Pyrenophora teres; 60 ppm a.i.
  Efficacy in % found: 0%
Botrytis cinerea; 10 ppm a.i.
  Efficacy in % found: 36%

## CC1(C)CN=C(c2cnc3ccccc3c2)c2cccc(F)c2O1 [b45, 9-fluoro-2,2-dimethyl-5-(quinolin-3-yl)-2,3-dihydro-1,4-benzoxazepine]
Septoria tritici; Table D2, 50 ppm a.i.
  Efficacy in % found: 0%
Septoria tritici; Table D2, 200 ppm a.i.
  Efficacy in % found: 0%
Venturia inaequalis; Table F2, 1 ppm a.i.
  Efficacy in % found: 0%
Alternaria solani; Table A2, 0.5 ppm a.i.
  Efficacy in % found: 24%

## Cc1nc2c(F)cccc2cc1Oc1cccc(F)c1C(C)(C)O [b46, 2-{2-fluoro-6-[(8-fluoro-2-methylquinolin-3-yl)oxy]phenyl}propan-2-ol]
Septoria tritici; Table D2, 50 ppm a.i.
  Efficacy in % found: 0%
Septoria tritici; Table D2, 200 ppm a.i.
  Efficacy in % found: 67%
Venturia inaequalis; Table F2, 0.5 ppm a.i.
  Efficacy in % found: 18%
Alternaria solani; Table A2, 0.5 ppm a.i.
  Efficacy in % found: 18%
Alternaria solani; Table A2, 1 ppm a.i.
  Efficacy in % found: 24%

## Cc1nc2c(F)c(F)ccc2cc1Oc1cccc(F)c1C(C)(C)O [b47, 2-{2-[(7,8-difluoro-2-methylquinolin-3-yl)oxy]-6-fluorophenyl}propan-2-ol]
Septoria tritici; Table D2, 50 ppm a.i.
  Efficacy in % found: 0%
Septoria tritici; Table D2, 200 ppm a.i.
  Efficacy in % found: 67%
Venturia inaequalis; Table F2, 0.5 ppm a.i.
  Efficacy in % found: 30%
Alternaria solani; Table A2, 0.5 ppm a.i.
  Efficacy in % found: 9%
Alternaria solani; Table A2, 1 ppm a.i.
  Efficacy in % found: 29%

## CC(C)c1ccc(Cl)cc1CN(C(=O)c1c(C(F)F)nn(C)c1F)C1CC1 [compound A5, N-(5-chloro-2-isopropylbenzyl)-N-cyclopropyl-3-(difluoromethyl)-5-fluoro-1-methyl-1H-pyrazole-4-carboxamide]
Pyrenophora teres; 10 ppm a.i.
  Efficacy in % found: 13%
Septoria tritici; Table D1, 5 ppm a.i.
  Efficacy in % found: 50%
Septoria tritici; Table D1, 10 ppm a.i.
  Efficacy in % found: 50%
Septoria tritici; Table D2, 10 ppm a.i.
  Efficacy in % found: 17%
Septoria tritici; Table D2, 20 ppm a.i.
  Efficacy in % found: 67%
Venturia inaequalis; Table F1, 0.5 ppm a.i.
  Efficacy in % found: 0%
Venturia inaequalis; Table F1, 1 ppm a.i.
  Efficacy in % found: 0%
Venturia inaequalis; Table F2, 0.5 ppm a.i.
  Efficacy in % found: 0%
Venturia inaequalis; Table F2, 1 ppm a.i.
  Efficacy in % found: 0%
Venturia inaequalis; Table F2, 2 ppm a.i.
  Efficacy in % found: 29%
Botrytis cinerea; 1 ppm a.i.
  Efficacy in % found: 15%
Sphaerotheca fuliginea; 0.5 ppm a.i.
  Efficacy in % found: 30%
Sphaerotheca fuliginea; 1 ppm a.i.
  Efficacy in % found: 37%
Alternaria solani; Table A1, 0.5 ppm a.i.
  Efficacy in % found: 38%
Alternaria solani; Table A1, 1 ppm a.i.
  Efficacy in % found: 30%
Alternaria solani; Table A2, 0.5 ppm a.i.
  Efficacy in % found: 0%
Alternaria solani; Table A2, 1 ppm a.i.
  Efficacy in % found: 41%
